Laboratory results as given in patent publication US7601732B2, “Crystalline form of 5(S)-(2-hydroxyethoxy)-20(S)-camptothecin” (Dr. Reddy's Laboratories Limited, priority 2006, dated 2009).
Like-named read-outs stand apart in the source and are kept apart here.

Key:
[1] = tested on: NCI-H460 (human small cell lung carcinoma) xenografts; assay: NCI-H460 xenograft study in nude mice; type: in vivo; settings: oral, (d×5)2 schedule
Experimental: Percentage tumor growth inhibition was calculated using the formula: Percentage Tumor growth inhibition=100−% T/C.
The other parameter observed was mortality.

in vivo [2] = assay: in vivo; design: species or system male Wistar rats; settings: male, Wistar, rat, po, 5 mg/kg
Experimental: 5(S)-CPT (2.5 mg/kg) and 5(RS)-CPT (5 mg/kg, including 2.5 mg/kg of 5(S)-CPT in the mixture) were been administered to male Wistar Rats to evaluate oral pharmacokinetics.
(§1) Male Wistar rats, 6-8 weeks of age and weighing between 205 and 218 g were divided into groups of four rats. The oral pharmacokinetics test was carried out in overnight fasted condition and intravenous pharmacokinetics was carried out in fed condition. The test drugs were administered as a solution by oral gavage or lateral tail vein injection. Sparse blood samples of about 250 microliters were collected from retro-orbital plexus at designated time points into microcentrifuge tubes containing 25 microliters of EDTA. Plasma was separated by centrifuging blood at 12,800 rpm for 2 min and refrigerated until analysis.
(§2) Samples were tested for the presence of the test drug as follows. An aliquot of 100 μl plasma (stored at 8° C.) was precipitated with 400 μl of cold methanol for the estimation of total (lactone+carboxylate). […] Concentrations of the test drug were calculated from the linearity plotted by spiking known concentrations of the test drug in blank rat plasma. The pharmacokinetics of the test drug was calculated using non-compartmental analysis.

in vivo [3] = assay: in vivo; design: species or system Swiss Albino mice; settings: Swiss Albino, mouse, po, 5 mg/kg
Experimental: 5(S)-CPT (2.5 mg/kg) and 5(RS)-CPT (5 mg/kg, including 2.5 mg/kg of 5(S)-CPT in the mixture) were been administered to Swiss Albino mice to evaluate oral pharmacokinetics.
as §1, with “Swiss Albino mice, 3-6” for “Male Wistar rats, 6-8”, “28-34” for “205 and 218”, “used in the study. Twelve mice were used per study.” for “divided into groups of four rats.”
as §2

Topoisomerase I = target: T1, Topoisomerase I (Homo sapiens, UniProt P11387); assay: Topoisomerase I assay (TopoGEN Topo I Drug Screening Kit); type: biochemical
T1 construct: purchased Topogen, Inc., Port Orange, Fla
T1 sequence (P11387 1-765): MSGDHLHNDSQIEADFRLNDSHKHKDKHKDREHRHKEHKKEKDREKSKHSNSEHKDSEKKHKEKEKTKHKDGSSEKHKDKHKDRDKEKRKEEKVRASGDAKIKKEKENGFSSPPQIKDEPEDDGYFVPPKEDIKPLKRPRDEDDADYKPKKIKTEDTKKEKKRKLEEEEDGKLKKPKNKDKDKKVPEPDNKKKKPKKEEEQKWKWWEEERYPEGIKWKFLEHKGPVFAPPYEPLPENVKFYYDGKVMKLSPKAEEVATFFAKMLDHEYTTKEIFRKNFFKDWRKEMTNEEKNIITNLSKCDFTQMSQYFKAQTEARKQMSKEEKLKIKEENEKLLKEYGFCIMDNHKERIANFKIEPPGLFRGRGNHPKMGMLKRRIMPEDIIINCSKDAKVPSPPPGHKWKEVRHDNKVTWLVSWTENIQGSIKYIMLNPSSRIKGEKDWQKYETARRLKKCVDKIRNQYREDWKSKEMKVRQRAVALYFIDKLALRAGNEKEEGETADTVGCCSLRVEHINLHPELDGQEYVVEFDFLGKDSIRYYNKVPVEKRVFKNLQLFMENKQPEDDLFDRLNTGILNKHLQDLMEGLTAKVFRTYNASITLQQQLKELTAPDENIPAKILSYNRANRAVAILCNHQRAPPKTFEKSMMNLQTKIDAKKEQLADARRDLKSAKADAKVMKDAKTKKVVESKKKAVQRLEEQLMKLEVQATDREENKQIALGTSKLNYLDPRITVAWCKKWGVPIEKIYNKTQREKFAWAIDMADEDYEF
Description: Topoisomerase I introduces transient nicks in DNA at specific sites. Detection of these transient DNA nicks requires trapping the enzyme on DNA in a nicked intermediate complex using protein denaturants. The resulting covalent DNA/topo I complexes contain nicked open circular DNA which can be detected by agarose gel electrophoresis (with ethidium bromide). Trapping nicked intermediates is relatively inefficient, however, inhibitors, such as the natural product camptothecin, stabilize the intermediate and lead to an increase in the nicked DNA product. This forms the basis for a mechanistic drug screen designed to allow detection of agents that affect topoisomerase I by stabilizing the cleaved intermediate complex.
The TopoGEN® Topo I Drug Screening Kit (Topogen, Inc., Port Orange, Fla.) is designed to allow the investigator to quickly identify novel inhibitors of topoisomerase I. The kit allows the detection of novel compounds that either stabilize the nicked intermediate or otherwise inhibit catalytic activity of topoisomerase I.
The above reaction mixture is incubated at 37° C. for 30 minutes. The reaction is terminated by adding 2 μl of 10% SDS and the mixture is vortexed rapidly (SDS should be added while at 37° C. as cooling the tubes might reseal the nicked DNA). 10× Dye, about 2.5 μl per tube, is added and equal volumes of a mixture of chloroform and isoamyl alcohol (24:1) is added and centrifuged at 13000 rpm for 10 minutes. Samples are loaded on a 1% agarose gel and electrophoresed for 1 hour at 80 volts. The gel was viewed on UV transilluminator and the densitometric estimation of the bands was calculated.
The density of the DNA bands of both super coiled and relaxed forms of DNA was measured using the densitometer. The band intensity of treated (with single concentration of the test drug) and without the drug (i.e., the Control) were recorded. The percentage of relaxed form DNA compared to the supercoiled DNA was calculated for all the lanes including treated and control.
% inhibition of Topoisomerase activity was calculated as: =(100−(100×(1/% inhibition in Control)×% inhibition in treated))

[4] = tested on: Human bone marrow mononuclear cells; assay: Human bone marrow assay (CFU-GM colony inhibition); type: cell-based
Experimental: Methocult™ GF (Cat No: H4534, Poietics, Biowhittakar, USA) medium comprising Methycellulose in Iscove's MDM, Fetal bovine serum, Bovine serum albumin, 2-Mercaptoethanol, L-Glutamine, rhStem cell factor, rhGM-CSF and rhIL-3 was used for the assay. Human bone marrow mononuclear cells (Cat No. 2M-125C, Poietics, Biowhittakar, USA) were mixed with Methocult™ GF and the cell density was adjusted to 3×10^5 cells/ml. From this preparation, 500 μL aliquots were made and 2.5 μL of 20× drug solution or vehicle was added to each aliquot and mixed thoroughly. 100 μL of clonogenic medium was plated into each well and the plates were allowed to gel at 4° C. for 15 minutes. Plates were incubated at 37° C. in a fully humidified atmosphere of 5% CO2 in an incubator for 14 days. CFU-GM colonies were counted under an inverted microscope as aggregates of 50 cells or more. The percentage colony inhibition was calculated using the following formula: 100−[(number of colonies in drug treated wells/Number of colonies in control wells)×100].

[5] = tested on: Saos-2 cells over expressing non-functional BCRP mut#10; type: cell-based, human
Experimental: (§3) The anticancer effect of 5(S)-CPT & 5(R)-CPT were evaluated versus the diastereoisomeric mixture 5(RS)-CPT on Saos-2 cells over expressing functional BCRP#4 and non-functional BCRP mut#10. The human osteosarcoma cell line, Saos-2, was obtained from ATCC (American Type Culture Collection, Cat#HTB-85, Manassas, Va.) and were maintained in DMEM containing 10% fetal bovine serum, 1% penicillin/streptomycin, and 2 mM glutamine. Saos-2 cells were transfected with either BCRP#4 to over express functional BCRP or BCRP#10 to over express non-functional BCRP transporter. The cells were plated in 96-well plates at a density of 1000 cells per each well in a 0.1 ml of medium and allowed to attach overnight. The next morning the medium was gently aspirated and serial dilutions of the compounds to be tested were added. The cells were incubated at 37° C. in a 5% CO2 incubator. After 6 days of exposure to the test drugs, 10 μl of Alamar blue was added aseptically to each well and the plates were returned to the incubator for 6 hr. The amount of the fluorescent dye produced was measured on a Cytofluor 2300(Millipore, Bedford, Mass.) using an excitation wavelength of 530 nm and emission wavelength of 590 nm. The relative fluorescence units obtained were used to calculate the percentage growth at each concentration in relation to the untreated control values. […]

[6] = tested on: Saos-2 cells over expressing functional BCRP#4; type: cell-based, human
Experimental: as §3

[7] = type: physicochemical; settings: accelerated stability 40° C.±2° C./75% RH±5% RH for 6 months
Experimental: The water content of crystalline 5(S)-CPT was measured by Mettler® DL 31 KF apparatus by using Karl Fischer reagent. A weighed quantity of crystalline 5(S)-CPT was transferred into a titration vessel of a Karl Fischer apparatus containing about 40 ml of previously neutralized methanol. The sample was dissolved with stirring, and was titrated with Karl Fisher Reagent to the end point under vigorous stirring. Water content was calculated as: […]
The product is stable in 6 months accelerated conditions.
In one embodiment, 5(S)-CPT is isolated in crystalline form, which exists substantially free from water (i.e., essentially anhydrous). The term “substantially free from water” means the presence of less than about 1.0% water w/w and even specifically less than about 0.5% water w/w as measured by Karl Fisher analysis or TGA. […] The product is stable for 6 months under accelerated stability testing conditions of 40° C.±2° C./75% RH±5% RH and stable for 24 months under long term stability testing conditions at 30° C.±2° C./65%±5% RH.

| Compound | % Tumor Growth Inhibition ([1]; 2 mg/kg) [%] | Mortality ([1]; 2 mg/kg) | Mortality ([1]; 4 mg/kg) | AUC (in vivo [2]) [µM·h] | AUC (in vivo [3]) [µM·h] | IC50 (Topoisomerase I) [µM] | GI90 for human bone marrow cells in vitro ([4]; human, 14 days) [µM] | Safety Margin (GI90/GI50) ([4]; human, 14 days) | fold more cytotoxic than 5(R)-CPT [5] [fold] | fold more cytotoxic than 5(R)-CPT [6] [fold] | change in water content (Karl Fisher analysis) [7] | hygroscopicity [7] | change in water content (Karl Fisher analysis) ([7]; listed as crystalline 5(S)-CPT) | fold more active than 5(R)-CPT in inhibiting topoisomerase I (Topoisomerase I; versus 5(R)-CPT) | times more active than 5(RS)-CPT in inhibiting topoisomerase I (Topoisomerase I; versus 5(RS)-CPT) | Safety Margin (GI90/GI50) ([4]; ratio of GI90 for human cell toxicity to GI50 for anticancer activity) |
| --- | --- | --- | --- | --- | --- | --- | --- | --- | --- | --- | --- | --- | --- | --- | --- | --- |
| CC[C@@]1(O)C(=O)OCc2c1cc1n(c2=O)C(OCCO)c2cc3ccccc3nc2-1 (mixture of isomers) [5(RS)-CPT, 5(RS)-(2′-hydroxyethoxy)-20(S)-camptothecin, reference compound] | 60 | 0/5 | 0/5 | 5.08 | 5.2 | 12.5 |  |  |  |  |  |  |  |  |  |  |
| CC[C@@]1(O)C(=O)OCc2c1cc1n(c2=O)[C@H](OCCO)c2cc3ccccc3nc2-1 [5(R)-CPT, 5(R)-(2′-hydroxyethoxy)-20(S)-camptothecin, reference compound] |  |  |  |  |  | 22 | 0.89 | 0.06 |  |  |  |  |  |  |  |  |
| CC[C@@]1(O)C(=O)OCc2c1cc1n(c2=O)[C@@H](OCCO)c2cc3ccccc3nc2-1 [5(S)-CPT, 5(S)-(2′-hydroxyethoxy)-20(S)-camptothecin] |  | 0/5 | 0/5 | 5.76 | 5.18 | 1.06 | 0.69 |  | ~6 | > 2.5 | no appreciable change | non-hygroscopic | No change | about 21 fold | about 12 times | 0.14 |
